From patent US20130109682A1, “CYCLIC ETHER COMPOUNDS USEFUL AS KINASE INHIBITORS” (NOVARTIS AG, priority 2010, published 2013)
Read-outs that look alike come from different tables or passages of the source.

Experiments:
[1] = target: T1, PIM2 (Homo sapiens, UniProt Q9P1W9); experiment: Pim 2 AlphaScreen assay (high ATP); assay type: biochemical; details: read-out: Pim2 IC50
Protocol: Pim1, Pim2, Pim3 AlphaScreen Assay Pim 1, Pim 2 & Pim 3 AlphaScreen assays using high ATP (11-125×ATP Km) were used to determine the biochemical activity of the inhibitors. The activity of Pim 1, Pim 2, & Pim 3 is measured using a homogeneous bead based system quantifying the amount of phosphorylated peptide substrate resulting from kinase-catalyzed phosphoryl transfer to a peptide substrate. Compounds to be tested are dissolved in 100% DMSO and directly distributed to a white 384-well plate at […] per well. To start the reaction, 5 μl of 100 nM Bad peptide (Biotin-AGAGRSRHSSYPAGT —OH) and ATP (concentrations described below) in assay buffer (50 mM Hepes, pH=7.5, 5 mM MgCl2, 0.05% BSA, 0.01% Tween-20, 1 mM DTT) is added to each well. This is followed by the addition of 5 μl/well of Pim 1, Pim 2 or Pim 3 kinase in assay buffer (concentrations described below). Final assay concentrations (described below) are in 2.5% DMSO. The reactions are performed for ˜2 hours, then stopped by the addition of 10 μl of 0.75 μg/ml anti-phospho Ser/Thr antibody (Cell Signaling), 10 μg/ml Protein A AlphaScreen beads (Perkin Elmer), and 10 μg/ml streptavidin coated AlphaScreen beads in stop/detection buffer (50 mM EDTA, 95 mM Tris, pH=7.5, 0.01% Tween-20). The stopped reactions are incubated overnight in the dark. The phosphorylated peptide is detected via an […] initiated chemiluminescence/fluorescence cascade using the Envision plate reader (Perkin Elmer).
IC50, the half maximal inhibitory concentration, represents the concentration of a test compound that is required for 50% inhibition of its target in vitro under the described assay conditions.

[2] = target: GSK3β (Homo sapiens, UniProt P49841); experiment: GSK3β ATP depletion assay; assay type: biochemical; details: read-out: GSK3b IC50
Summary of the method: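 Kinase activity is read as ATP consumption: luciferase luminescence reports the ATP remaining once roughly half of the 2 μM ATP is used. Reaction mix: 5 nM GSK3β, 10 μM b-CREB peptide, 50 mM Tris pH 7.5, 15 mM MgCl2, 1 mM DTT, 0.1% BSA, 2.5% DMSO. Enzyme and peptide are preincubated 15 min before ATP is added.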

[3] = target: PIM1 (Homo sapiens, UniProt P11309); experiment: KinaseGlo Pim1 ATP depletion assay; assay type: biochemical
Summary of the method: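 IC50 is derived from residual ATP measured by KinaseGlo Plus luminescence once about half the ATP was consumed. Final conditions were 20 μM ATP, 40 μM BAD peptide and 2.5 nM kinase in HEPES pH 7.5 buffer with MgCl2, DTT and BSA, plus 2.5% DMSO. Compound and enzyme were premixed 15 min before ATP addition.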

[4] = target: PIM3 (Homo sapiens, UniProt Q86V86); experiment: KinaseGlo Pim3 ATP depletion assay; assay type: biochemical
Summary of the method: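 Residual ATP was detected by luciferase luminescence once about half had been consumed. The reaction contained 5 nM enzyme, 100 μM BAD peptide (RSRHSSYPAGT) and 40 μM ATP in 50 mM HEPES pH 7.5, 5 mM MgCl2, 1 mM DTT and 0.05% BSA with 2.5% DMSO. Compound and enzyme/peptide were premixed 15 min before ATP.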

[5] = test system: KMS11 (human myeloma cell line); experiment: Cell proliferation assay (CellTiter-Glo), KMS11; assay type: cell-based; details: Homo sapiens, KMS-11; KMS11-Luc cells
Summary of the method: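 EC50 derived from CellTiter-Glo luminescence after 3-day exposure at 37° C. Compound was diluted to 2× in medium and added to an equal volume of cells. KMS11 myeloma cells were plated on assay day at 2000/well in IMDM with 10% FBS and sodium pyruvate.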

[6] = target: T1, PIM2; experiment: KinaseGlo Pim2 ATP depletion assay; assay type: biochemical
Summary of the method: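 Compound sat 15 min with enzyme and BAD peptide before ATP was added; final levels 5 nM PIM2, 10 μM peptide, 4 μM ATP, 2.5% DMSO, pH 7.5 HEPES buffer with MgCl2, DTT, BSA. Stopped near 50% ATP consumption; remaining ATP measured by luciferase luminescence.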

T1 sequence (Q9P1W9 whole entry): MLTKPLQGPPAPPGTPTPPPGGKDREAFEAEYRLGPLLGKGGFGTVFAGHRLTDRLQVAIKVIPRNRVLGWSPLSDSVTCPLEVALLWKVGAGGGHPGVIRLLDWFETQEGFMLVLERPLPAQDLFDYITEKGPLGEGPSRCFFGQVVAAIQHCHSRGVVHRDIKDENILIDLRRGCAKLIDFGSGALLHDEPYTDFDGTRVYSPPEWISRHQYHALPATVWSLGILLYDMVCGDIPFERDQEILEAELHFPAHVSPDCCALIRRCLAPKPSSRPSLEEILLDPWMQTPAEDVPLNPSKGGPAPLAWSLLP
Sequence of PIM1 (P11309 whole entry): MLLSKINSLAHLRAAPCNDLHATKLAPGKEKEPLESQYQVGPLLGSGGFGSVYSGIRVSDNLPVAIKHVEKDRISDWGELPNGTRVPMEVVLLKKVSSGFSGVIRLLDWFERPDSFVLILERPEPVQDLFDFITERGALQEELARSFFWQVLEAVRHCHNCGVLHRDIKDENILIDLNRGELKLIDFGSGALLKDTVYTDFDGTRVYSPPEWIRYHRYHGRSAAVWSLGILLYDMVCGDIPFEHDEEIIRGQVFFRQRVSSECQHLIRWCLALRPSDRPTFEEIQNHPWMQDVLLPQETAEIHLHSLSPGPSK
Sequence of GSK3β (P49841 whole entry, species assumed): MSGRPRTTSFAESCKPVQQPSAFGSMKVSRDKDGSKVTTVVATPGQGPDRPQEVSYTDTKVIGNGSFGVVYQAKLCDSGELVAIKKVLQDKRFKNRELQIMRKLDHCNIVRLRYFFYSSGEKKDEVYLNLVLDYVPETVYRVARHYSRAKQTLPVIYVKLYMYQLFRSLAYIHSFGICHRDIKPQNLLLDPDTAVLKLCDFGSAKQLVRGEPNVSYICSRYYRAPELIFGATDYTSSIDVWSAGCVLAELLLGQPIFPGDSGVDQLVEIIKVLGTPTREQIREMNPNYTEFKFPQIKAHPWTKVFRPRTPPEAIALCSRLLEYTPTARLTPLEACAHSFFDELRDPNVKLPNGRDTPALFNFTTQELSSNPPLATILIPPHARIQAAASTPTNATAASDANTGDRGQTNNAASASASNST

Row | Compound | IC50 [1] [µM] | IC50 ([2]; ATP depletion assay) [µM] | IC50 [3] [µM] | IC50 [4] [µM] | EC50 [5] [µM] | IC50 [2] [µM] | IC50 [6] [µM]
1 | CC[C@H]1OC(c2ccncc2NC(=O)c2ccc(F)c(-c3c(F)cc(S(C)(=O)=O)cc3F)n2)C[C@@H](N)[C@]1(C)O (stereo in doubt) [Example 283, N-(4-((2S,4R,5S,6R)-4-amino-6-ethyl-5-hydroxy-5-methyltetrahydro-2H-pyran-2-yl)pyridin-3-yl)-6-(2,6-difluoro-4-(methylsulfonyl)phenyl)-5-fluoropicolinamide] | 0.0874 | 12.5 | – | – | – | – | –
2 | CC[C@]1(O)[C@H](N)CC(c2ccncc2NC(=O)c2ccc(F)c(-c3c(F)cc(S(C)(=O)=O)cc3F)n2)O[C@@H]1C (stereo in doubt) [Example 284, N-(4-((2S,4R,5S,6R)-4-amino-5-ethyl-5-hydroxy-6-methyltetrahydro-2H-pyran-2-yl)pyridin-3-yl)-6-(2,6-difluoro-4-(methylsulfonyl)phenyl)-5-fluoropicolinamide] | 0.0591 | 0.619 | – | – | – | – | –
3 | CC(=O)Nc1ccc(F)c(-c2nc(C(=O)Nc3cnccc3C3C[C@@H](N)[C@H](O)[C@@H](C(C)C)O3)ccc2F)c1F (stereo in doubt) [Example 307, 6-(3-acetamido-2,6-difluorophenyl)-N-(4-((2S,4R,5S,6R)-4-amino-5-hydroxy-6-isopropyltetrahydro-2H-pyran-2-yl)pyridin-3-yl)-5-fluoropicolinamide] | 0.0501 | 3.42 | – | – | – | – | –
4 | Nc1cnc(-c2c(F)cccc2F)nc1C(=O)Nc1cnccc1[C@@H]1C[C@H](N)[C@]2(O)CCC[C@@H]2O1 [Example 214, 5-amino-N-(4-((2S,4S,4aR,7aS)-4-amino-4a-hydroxyoctahydrocyclopenta[b]pyran-2-yl)pyridin-3-yl)-2-(2,6-difluorophenyl)pyrimidine-4-carboxamide] | – | – | 0.258 | 0.373 | > 10 | > 25 | 2.25
5 | Nc1ccc(-c2c(F)cccc2F)nc1C(=O)Nc1cnccc1[C@H]1C[C@@H](N)[C@@]2(O)CCC[C@H]2O1 [Example 215, 3-amino-N-(4-((2R,4R,4aS,7aR)-4-amino-4a-hydroxyoctahydrocyclopenta[b]pyran-2-yl)pyridin-3-yl)-6-(2,6-difluorophenyl)picolinamide] | – | – | 0.0006 | 0.004 | 0.8 | 0.252 | 0.0026
6 | CC(C)[C@H]1O[C@@H](c2ccncc2NC(=O)c2ccnc(-c3c(F)cccc3F)n2)C[C@@H](N)[C@@H]1O [Example 293, N-(4-((2R,4R,5S,6R)-4-amino-5-hydroxy-6-isopropyltetrahydro-2H-pyran-2-yl)pyridin-3-yl)-2-(2,6-difluorophenyl)pyrimidine-4-carboxamide] | 0.153 | 0.95 | – | – | – | – | –
7 | CC(C)[C@H]1O[C@@H](c2ccncc2NC(=O)c2ccc(F)c(-c3cnc4[nH]ccc4c3)n2)C[C@@H](N)[C@@H]1O [Example 295, N-(4-((2R,4R,5S,6R)-4-amino-5-hydroxy-6-isopropyltetrahydro-2H-pyran-2-yl)pyridin-3-yl)-5-fluoro-6-(1H-pyrrolo[2,3-b]pyridin-5-yl)picolinamide] | 0.345 | 4.3 | – | – | – | – | –
8 | CC1(C)C[C@@H](N)C[C@H](c2ccncc2NC(=O)c2ccc(F)c(-c3c(F)cccc3F)n2)O1 [Example 298, N-(4-((2R,4S)-4-amino-6,6-dimethyltetrahydro-2H-pyran-2-yl)pyridin-3-yl)-6-(2,6-difluorophenyl)-5-fluoropicolinamide] | 0.234 | 4.94 | – | – | – | – | –
9 | CC(C)[C@H]1C[C@@H](N)C[C@@H](c2ccncc2NC(=O)c2ccc(F)c(-c3c(F)cc(S(C)(=O)=O)cc3F)n2)O1 [Example 303, N-(4-((2S,4R,6R)-4-amino-6-isopropyltetrahydro-2H-pyran-2-yl)pyridin-3-yl)-6-(2,6-difluoro-4-(methylsulfonyl)phenyl)-5-fluoropicolinamide] | 1.25 | 10.3 | – | – | – | – | –

Further lines, results first:

Row | IC50 [1] [µM] | IC50 ([2]; ATP depletion assay) [µM] | IC50 [3] [µM] | IC50 [4] [µM] | EC50 [5] [µM] | IC50 [2] [µM] | IC50 [6] [µM] | Compound
10 | 7.49 | – | – | – | – | – | – | CC[C@@H]1O[C@H](c2ccncc2NC(=O)c2ccc(F)c(-c3c(F)cccc3F)n2)C[C@H](O)[C@@]1(C)O [Example 163, 6-(2,6-difluorophenyl)-N-(4-((2S,4S,5R,6S)-6-ethyl-4,5-dihydroxy-5-methyltetrahydro-2H-pyran-2-yl)pyridin-3-yl)-5-fluoropicolinamide]
11 | – | – | 0.001 | 0.0022 | 2.7 | 0.636 | 0.0031 | O=C(Nc1cnccc1[C@H]1C[C@@H](O)[C@H](O)[C@@H](C2CC2)O1)c1ccc(F)c(-c2c(F)cccc2F)n1 [Example 211, N-(4-((2R,4R,5S,6R)-6-cyclopropyl-4,5-dihydroxytetrahydro-2H-pyran-2-yl)pyridin-3-yl)-6-(2,6-difluorophenyl)-5-fluoropicolinamide]
12 | – | – | 0.0179 | 0.155 | 3.36 | 11.5 | 0.508 | N[C@H]1C[C@@H](c2ccncc2NC(=O)c2ccc(F)c(-c3c(F)cccc3F)n2)O[C@H]2CCC[C@]21O [Example 212, N-(4-((2S,4S,4aR,7aS)-4-amino-4a-hydroxyoctahydrocyclopenta[b]pyran-2-yl)pyridin-3-yl)-6-(2,6-difluorophenyl)-5-fluoropicolinamide]
13 | 0.0707 | 9.7 | – | – | – | – | – | CC(C)(C)[C@H]1O[C@@H](c2ccncc2NC(=O)c2ccc(F)c(-c3c(F)cccc3F)n2)C[C@H](N)[C@@H]1O [Example 278, N-(4-((2R,4S,5S,6R)-4-amino-6-(tert-butyl)-5-hydroxytetrahydro-2H-pyran-2-yl)pyridin-3-yl)-6-(2,6-difluorophenyl)-5-fluoropicolinamide]
14 | 0.0271 | 0.548 | – | – | – | – | – | CC(C)(C)[C@@H]1O[C@H](c2ccncc2NC(=O)c2ccc(F)c(-c3c(F)cccc3F)n2)C[C@@H](N)[C@H]1O [Example 279, N-(4-((2S,4R,5R,6S)-4-amino-6-(tert-butyl)-5-hydroxytetrahydro-2H-pyran-2-yl)pyridin-3-yl)-6-(2,6-difluorophenyl)-5-fluoropicolinamide]
15 | 0.388 | 1.5 | – | – | – | – | – | C[C@]1(O)[C@@H](N)C[C@H](c2ccncc2NC(=O)c2ccc(F)c(-c3c(F)cccc3F)n2)OC12CC2 [Example 287, N-(4-((5R,7S,8S)-7-amino-8-hydroxy-8-methyl-4-oxaspiro[2.5]octan-5-yl)pyridin-3-yl)-6-(2,6-difluorophenyl)-5-fluoropicolinamide]
16 | 0.272 | 16.3 | – | – | – | – | – | C[C@@]1(O)[C@H](N)C[C@@H](c2ccncc2NC(=O)c2ccc(F)c(-c3c(F)cccc3F)n2)OC12CC2 [Example 288, N-(4-((5S,7R,8R)-7-amino-8-hydroxy-8-methyl-4-oxaspiro[2.5]octan-5-yl)pyridin-3-yl)-6-(2,6-difluorophenyl)-5-fluoropicolinamide]
17 | 0.159 | 20.7 | – | – | – | – | – | CC(C)[C@H]1C[C@@H](N)C[C@@H](c2ccncc2NC(=O)c2ccc(F)c(-c3c(F)cccc3F)n2)O1 [Example 301, N-(4-((2S,4R,6R)-4-amino-6-isopropyltetrahydro-2H-pyran-2-yl)pyridin-3-yl)-6-(2,6-difluorophenyl)-5-fluoropicolinamide]
